# Assay results reported in patent publication US10829453B2, “Antagonists of the kappa opioid receptor” (University of Kansas, priority 2014, dated 2020).
# Counter-ions that a name gives are not always drawn.
# Columns and labels:
# [1] = biological target: T1, human kappa opioid receptors (Homo sapiens, UniProt P41145); experiment: [35S]GTPγS binding (G protein coupling) assay, antagonism of U69,593; format: biochemical; details: CHO-hKOR membranes, 100 nM U69,593, n ≥ 3; for IC50: read-out: IC50 (nM) ± S.E.M. [35S]GTPγS
# T1 construct: HA; expressed in transfected cells; host or cells: Chinese hamster ovary (CHO) cells, virally transfected
# Description: (§1) Chinese hamster ovary (CHO) cells were virally transfected to express HA-tagged recombinant human kappa opioid receptors (CHO-hKOR cell line) and maintained in DMEM/F-12 media (Invitrogen) supplemented with 10% fetal bovine serum, 1% penicillin/streptomycin, and 500 μg/ml geneticin as described in Schmid, C. L.; Streicher, J. M.; Groer, C. E.; Munro, T. A.; Zhou, L.; Bohn, L. M. Functional selectivity of 6′-guanidinonaltrindole (6′-GNTI) at kappa opioid receptors in striatal neurons. […] A DiscoveRx PathHunter™ U2OS cell line expressing βarrestin2 and hKOR (U2OS-hKOR-βarrestin2-DX) was purchased from DiscoveRx Corporation (Fremont, Calif.) and maintained MEM with 10% fetal bovine serum, 1% penicillin/streptomycin, 500 μg/ml geneticin and 250 μg/ml hygromycin B. All cells were grown at 37° C. (5% CO2 and 95% relative humidity).
# Briefly, cells were serum starved for 1 hour and membranes were prepared. Each reaction was performed at room temperature and contained 15 μg of membrane protein, 40 μM GDP, ˜0.1 nM [^35S]GTPγS and increasing concentrations of compounds in assay buffer (50 mM Tris-HCl, pH 7.4, 100 mM NaCl, 5 mM MgCl2, 1 mM EDTA). Directly after the addition of test compounds, 100 nM U69,593 was added to yield a total volume of 200 μL. After 1 hour, reactions were quenched by rapid filtration through GF/B filters and radioactivity was counted with a TopCount NXT high throughput screening microplate scintillation and luminescence counter (PerkinElmer Life Sciences).
# (§2) All compounds were run in parallel assays in 2-4 replicates per individual experiment. All studies were performed n≥3 independent experiments in multiple replicates. For determination of antagonist inhibition, each individual experiment was normalized to the percentage of maximal U69,593 stimulation. The efficacy and potency values were obtained from the averages of the nonlinear regression analysis performed on each individual curve and are reported as the mean±S.E.M.
# [2] = biological target: T1, human kappa opioid receptors; experiment: In-cell western ERK1/2 phosphorylation, inhibition of U69,593 induced ERK phosphorylation; format: cell-based; details: hKOR-CHO cells, 100 nM U69,593, n ≥ 3; for IC50: read-out: IC50 (nM) ± S.E.M. ERK
# Description: as §1
# Briefly, hKOR-CHO cells were plated in 384-well plate at 15,000 cells per well and incubated at 37° C. overnight. After an hour serum starve, cells were treated with compound followed by the addition of 100 nM U69,593 and a 10 minute incubation at 37° C. Cells were fixed, permeabilized, blocked, and stained with primary antibodies for phosphorylated ERK1/2 and total-ERK1/2 (1:300 and 1:400, respectively) at 4° C. overnight. Cells then incubated with Li-Cor secondary antibodies (anti-rabbit IRDye800CW, 1:500; anti-mouse IRDye680LT, 1:1500) and imaged with the Odyssey Infrared Imager (Li-Cor Biosciences, Lincoln, Nebr.) at 700 and 800 nm.
# as §2
# hKOR = biological target: T2, hKOR (Homo sapiens, UniProt P41145); experiment: βArrestin2 recruitment (DiscoveRx PathHunter) assay; format: cell-based; details: for IC50: read-out: IC50 (nM) ± S.E.M. βarr2; for β arrestin 2 Inhibition (% U69,593 Stimulation) 1 μm: compound at 1 μm; for β arrestin 2 Inhibition (% U69,593 Stimulation) 1 μm / β arrestin 2 Inhibition (% U69,593 Stimulation) 10 Nm / β arrestin 2 Inhibition (% U69,593 Stimulation) 100 Nm: set concentration of U69,593; for β arrestin 2 Inhibition (% U69,593 Stimulation) 10 Nm: compound at 10 Nm; for β arrestin 2 Inhibition (% U69,593 Stimulation) 100 Nm: compound at 100 Nm
# T2 construct: host or cells: U2OS (PathHunter U2OS-hKOR-βarrestin2-DX), purchased engineered cell line
# Description: as §1
# Briefly, 5,000 cells/well were plated overnight in Opti-MEM containing 1% fetal bovine serum, 1% penicillin/streptomycin. Cells were pretreated with antagonist for 15 min at 37° C. followed by the addition of 1 μM U69,593 and a 90 minute incubation at 37° C. PathHunter™ detection reagent was added and cells incubated at room temperature for 60 minutes. Chemiluminescence was detected using a SpectraMax® M5e Multimode Plate Reader (Molecular Devices). βarrestin2 recruitment assays were also performed using an imaging platform (Cellomics) to visulalize translocation of a fluorescent protein tagged βarrestin2 to the membrane of KOR expressing U2OS cells.
# as §2
# [3] = mouse brain, single administration; cited from earlier work
# [4] = Concentrations in plasma and brain tissue of mice after a single IP dose; details: single 10 mg/kg IP
# C57BL/6 mice = experiment: Locomotor activity in open field, alone and against U50,488; format: in vivo
# [5] = U2OS-hKOR-βarrestin2-DX cells, 1 μM U69,593, n ≥ 3
# T2 sequence (P41145 whole entry): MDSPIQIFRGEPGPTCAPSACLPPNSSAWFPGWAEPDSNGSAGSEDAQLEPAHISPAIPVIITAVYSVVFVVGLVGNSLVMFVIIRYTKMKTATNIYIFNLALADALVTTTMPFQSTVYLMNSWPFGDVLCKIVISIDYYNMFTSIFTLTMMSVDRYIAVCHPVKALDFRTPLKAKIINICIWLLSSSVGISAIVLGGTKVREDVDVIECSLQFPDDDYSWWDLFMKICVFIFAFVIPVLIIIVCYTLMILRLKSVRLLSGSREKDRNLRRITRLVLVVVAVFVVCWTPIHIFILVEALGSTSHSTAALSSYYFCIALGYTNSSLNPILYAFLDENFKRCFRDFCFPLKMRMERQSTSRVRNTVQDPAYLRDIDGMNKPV
# T1 sequence (P41145 whole entry): as above
Compound,IC50 [1] [nM],IC50 [2] [nM],IC50 (hKOR; [5]) [nM],"β arrestin 2 Inhibition (% U69,593 Stimulation) 1 μm (hKOR)","β arrestin 2 Inhibition (% U69,593 Stimulation) 10 Nm (hKOR)","β arrestin 2 Inhibition (% U69,593 Stimulation) 100 Nm (hKOR)",other results
"Cc1cc(C)c(S(=O)(=O)N2CCc3cc(C(=O)NCCN(Cc4ccccc4)C(C)C)ccc3C2)c(C)c1 [Compound 1c, N-(2-(Benzyl(isopropyl)amino)ethyl)-2-(mesitylsulfonyl)-1,2,3,4-tetrahydroisoquinoline-6-carboxamide]",113 ± 42,1120,930 ± 150,,,,
"Cc1ccc(S(=O)(=O)N(C)Cc2ccc(C(=O)N(C)CCN(Cc3ccccc3)C(C)C)cc2)cc1 [Compound 1a, N-(2-(Benzyl(isopropyl)amino)ethyl)-N-methyl-4-((N,4-dimethylphenylsulfonamido)methyl)benzamide, reference compound]",,,,,,,IC50 (nM) ± S.E.M. [35S]GTPγS [1]: inactive; IC50 (nM) ± S.E.M. ERK [2]: inactive; IC50 (nM) ± S.E.M. βarr2 (hKOR; [5]): inactive
"CCc1ccc(S(=O)(=O)N2CCc3cc(C(=O)NCCN(Cc4ccc(Br)cc4)C(C)C)ccc3C2)cc1 [Compound 1g, N-(2-((4-Bromobenzyl)(isopropyl)amino)ethyl)-2-((4-ethylphenyl)sulfonyl)-1,2,3,4-tetrahydroisoquinoline-6-carboxamide]",33 ± 11,314 ± 56,350 ± 68,,,,
"Oc1ccc2c3c1O[C@H]1c4[nH]c5c(c4C[C@@]4(O)[C@@H](C2)N(CC2CC2)CC[C@]314)C[C@@]1(O)[C@H]2Cc3ccc(O)c4c3[C@@]1(CCN2CC1CC1)[C@H]5O4 [norBNI, nor-binaltorphimine dihydrochloride, reference compound]",,,,"0.9 % U69,593 Stimulation","0.1 % U69,593 Stimulation","0.6 % U69,593 Stimulation",time after which still detected in brain tissue [3]: more than 21 days; presence in brain tissue ([4]; after 72 h): still significantly present
"Cc1cc(C)c(S(=O)(=O)N2CCc3cc(C(=O)NCCN(Cc4ccc(Br)cc4)C(C)(C)C)ccc3C2)c(C)c1 [Compound 1n, N-(2-((4-Bromobenzyl)(tert-butyl)amino)ethyl)-2-(mesitylsulfonyl)-1,2,3,4-tetrahydroisoquinoline-6-carboxamide]",106 ± 16,1340,710 ± 150,,,,
"Cc1ccc(S(=O)(=O)N2CCc3cc(C(=O)NCCN(Cc4ccc(Br)cc4)C(C)(C)C)ccc3C2)cc1 [Compound 1m, N-(2-((4-Bromobenzyl)(tert-butyl)amino)ethyl)-2-tosyl-1,2,3,4-tetrahydroisoquinoline-6-carboxamide]",2.9 ± 1.2,87 ± 17,93 ± 30,,,,
"COc1ccc(CN(CCNC(=O)c2ccc3c(c2)CCN(S(=O)(=O)c2ccc(C)cc2)C3)C(C)(C)C)cc1 [Compound 1b, N-(2-(tert-butyl(4-methoxybenzyl)amino)ethyl)-2-tosyl-1,2,3,4-tetrahydroisoquinoline-6-carboxamide]",,,,"0.0 % U69,593 Stimulation","0.0 % U69,593 Stimulation","0.8 % U69,593 Stimulation",
"Cc1ccc(S(=O)(=O)N2CCc3cc(C(=O)NCCN(Cc4ccccc4)C(C)(C)C)ccc3C2)cc1 [Compound 1h, N-(2-(Benzyl(tert-butyl)amino)ethyl)-2-tosyl-1,2,3,4-tetrahydroisoquinoline-6-carboxamide]",5.28 ± 0.6,49.1 ± 9.7,104 ± 8.2,,,,
"Cc1ccc(S(=O)(=O)N2CCc3cc(C(=O)NCCN(Cc4ccc(Cl)cc4)C(C)(C)C)ccc3C2)cc1 [Compound 1l, N-(2-((4-Chlorobenzyl)(tert-butyl)amino)ethyl)-2-tosyl-1,2,3,4-tetrahydroisoquinoline-6-carboxamide]",,,,"1.5 % U69,593 Stimulation","29.9 % U69,593 Stimulation","0.4 % U69,593 Stimulation","clearance from brain tissue ([4]; 4h measurement): almost fully cleared; crossing of the blood brain barrier into the CNS ([4]; brain tissue, within 0.5 h): cross the blood brain barrier into the CNS at concentrations similar to norBNI; effect of pretreatment on U50,488 hypolocomotion (C57BL/6 mice; 10-minute pretreatment, 10 mg/kg i.p., vs vehicle pretreatment followed by U50,488, FIG. 3): prevents the development of U50,488 hypolocomotion; suppression of locomotor (ambulatory) activity compared to vehicle (C57BL/6 mice; C57BL/6 mice, open field, 1 hour, FIG. 2): not to suppress activity compared to vehicle"
